Test results as given in the supplement of paper PMC11061612.

How the values were obtained:
[1] = test system: BT-549 (Breast Carcinoma); experiment: Bliss excess, mean over the matrix (fraction); higher = more synergy
Summary of the method: (§1)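 Bliss excess equals the observed combination effect minus the expected value EA + EB − EA·EB, where EA and EB are the effects of each agent alone. Combination Emax is the second-highest inhibition within the matrix. Inhibition was scaled from CellTiter-Glo 2.0 luminescence, with 0 set by vehicle wells and 1 by blank wells, after 72 hours of two-drug dosing of cells plated in 1536-well plates.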

[2] = test system: Ca9-22 (Head and Neck Carcinoma); experiment: as above
Summary of the method: as §1

[3] = test system: EFM-19 (Breast Carcinoma); experiment: as above
Summary of the method: as §1

[4] = test system: KARPAS-299 (T-Cell Non-Hodgkin's Lymphoma); experiment: as above
Summary of the method: as §1

[5] = test system: KYSE-450 (Esophageal Squamous Cell Carcinoma); experiment: as above
Summary of the method: as §1

[6] = test system: MIA-PaCa-2 (Pancreatic Carcinoma); experiment: as above
Summary of the method: as §1

NB69 (Neuroblastoma) = experiment: as above
Summary of the method: as §1

[7] = test system: NCI-H358 (Lung Adenocarcinoma); experiment: as above
Summary of the method: as §1

[8] = test system: NCI-H727 (Other Solid Carcinomas); experiment: as above
Summary of the method: as §1

[9] = test system: RF-48 (B-Cell Non-Hodgkin's Lymphoma); experiment: as above
Summary of the method: as §1

[10] = test system: SW13 (Other Solid Carcinomas); experiment: as above
Summary of the method: as §1

TK10 (Kidney Carcinoma) = experiment: as above
Summary of the method: as §1

UACC-62 (Melanoma) = experiment: combination Emax (second highest fraction inhibited in the dose matrix, 72 h); higher = more inhibition; extreme values may be limits of the assay
Summary of the method: as §1

EW-24 (Ewing's Sarcoma) = experiment: Bliss excess, mean over the matrix (fraction); higher = more synergy
Summary of the method: as §1

SMILES	Bliss excess [1]	Bliss excess [2]	Bliss excess [3]	Bliss excess [4]	Bliss excess [5]	Bliss excess [6]	Bliss excess (NB69 (Neuroblastoma))	Bliss excess [7]	Bliss excess [8]	Bliss excess [9]	Bliss excess [10]	Bliss excess (TK10 (Kidney Carcinoma))	combination Emax (UACC-62 (Melanoma))	Bliss excess (EW-24 (Ewing's Sarcoma))
Cc1c2c(nn1C)CSCc1cc(n(C)n1)CSc1cc(c3ccccc3c1)OCCCc1c(C(=O)O)n(C)c3c-2c(Cl)ccc13 [AZD5991] + CS(=O)(=O)CCNCc1ccc(-c2ccc3ncnc(Nc4ccc(OCc5cccc(F)c5)c(Cl)c4)c3c2)o1 [Lapatinib] (first compound max 1 µM, 7x7, partner max 10 µM)	-0.042	0.0614	-0.0035	0.0227	-0.0108	-0.0094	0.021	-0.0019	-0.0013	-0.0917	0.0568	-0.0567	0.576	
O=C(c1cc(Cc2n[nH]c(=O)c3ccccc23)ccc1F)N1CCN(C(=O)C2CC2)CC1 [Olaparib] + CC1(C)CCC(CN2CCN(c3ccc(C(=O)NS(=O)(=O)c4ccc(NCC5CCOCC5)c([N+](=O)[O-])c4)c(Oc4cnc5[nH]ccc5c4)c3)CC2)=C(c2ccc(Cl)cc2)C1 [Venetoclax] (first compound max 10 µM, 7x7, partner max 1 µM)	-0.0516	0.0323	0.0138	0.0277	-0.0499	-0.0208	0.067	-0.054	-0.0383	0.118	-0.0309	-0.0727	0.213	-0.0087
O=C(c1cc(Cc2n[nH]c(=O)c3ccccc23)ccc1F)N1CCN(C(=O)C2CC2)CC1 [Olaparib] + COc1nnc2ccc(N3CCC(c4ccc(OCCN5CCN(C)C(=O)[C@H]5C)cc4)CC3)nn12 [AZD5153] (first compound max 10 µM, 7x7, partner max 1 µM)	-0.0697	-0.0495	0.0112	-0.0654	-0.0606	-0.0233	0.0035	-0.026	-0.0452	-0.0374	-0.0183	-0.0301	0.491	-0.0469
C[C@@H](Nc1cc(F)cc(F)c1)c1cc(C(=O)N(C)C)cc2c(=O)cc(N3CCOCC3)oc12 [AZD8186] + CC(=O)c1c(C)c2cnc(Nc3ccc(N4CCNCC4)cn3)nc2n(C2CCCC2)c1=O [Palbociclib] (first compound max 10 µM, 7x7, partner max 10 µM)	0.0464	0.021	-0.0026	0.0912	-0.0404	0.0485	-0.0111	-0.0167	0.0923	0.0054	0.044	-0.0069	0.51	0.0598
C[C@@H](Oc1cc(-c2cnn(C3CCNCC3)c2)cnc1N)c1c(Cl)ccc(F)c1Cl [Crizotinib] + Cn1cnc2c(F)c(Nc3ccc(Br)cc3Cl)c(C(=O)NOCCO)cc21 [Selumetinib] (first compound max 10 µM, 7x7, partner max 10 µM)	-0.063	-0.0286	-0.0327	-0.032	-0.0241	0.0058	-0.0283	-0.106	-0.0226	-0.0548	-0.0324	-0.0705	0.782	-0.0464
CN(CCO)CC[C@H](CSc1ccccc1)Nc1ccc(S(=O)(=O)NC(=O)c2ccc(N3CCC([C@@H](O)c4ccccc4-c4ccc(Cl)cc4)CC3)cc2)cc1S(=O)(=O)C(F)(F)F [AZD4320] + CS(=O)(=O)CCNCc1ccc(-c2ccc3ncnc(Nc4ccc(OCc5cccc(F)c5)c(Cl)c4)c3c2)o1 [Lapatinib] (first compound max 1 µM, 7x7, partner max 10 µM)	-0.0188	0.0479	0.013	0.0265	-0.0459	0.0373	0.0465		0.0904	-0.0184	0.0051	-0.0942	0.362	0.0333
Cc1nc(-c2cn3c(n2)-c2ccc(-c4cnn(C(C)(C)C(N)=O)c4)cc2OCC3)n(C(C)C)n1 [Taselisib] + O=C(Nc1ccc2[nH]nc(-c3ccncc3)c2c1)[C@@H]1CCN(CC(=O)N2CCN(c3ccc(-c4ncccn4)cc3)CC2)C1 [SCH772984] (first compound max 10 µM, 7x7, partner max 5 µM)	0.047	0.116	0.0524	0.147	0.0365	0.149	-0.0509	0.0402	0.0252	0.102	0.334	-0.008	0.955	0.0424
C=CCn1c(=O)c2cnc(Nc3ccc(N4CCN(C)CC4)cc3)nc2n1-c1cccc(C(C)(C)O)n1 [AZD1775] + CCc1c2c(nc3ccc(O)cc13)-c1cc3c(c(=O)n1C2)COC(=O)[C@]3(O)CC [SN-38] (first compound max 1 µM, partner max 0.3 µM)	-0.057	0.0045	-0.0175	-0.042	0.0358	0.0699	0.0239	-0.0162	-0.0018	-0.0404	0.0119	-0.0717	0.745	-0.113
CC1(C)CCC(CN2CCN(c3ccc(C(=O)NS(=O)(=O)c4ccc(NCC5CCOCC5)c([N+](=O)[O-])c4)c(Oc4cnc5[nH]ccc5c4)c3)CC2)=C(c2ccc(Cl)cc2)C1 [Venetoclax] + CS(=O)(=O)CCNCc1ccc(-c2ccc3ncnc(Nc4ccc(OCc5cccc(F)c5)c(Cl)c4)c3c2)o1 [Lapatinib] (first compound max 1 µM, 7x7, partner max 10 µM)	-0.0573	0.0232	-0.002	0.0202	-0.0413	0.0099	0.0877	-0.0321	-0.012	0.0123	-0.0672	-0.0141	0.256	-0.0183
CS(=O)(=O)CCNCc1ccc(-c2ccc3ncnc(Nc4ccc(OCc5cccc(F)c5)c(Cl)c4)c3c2)o1 [Lapatinib] + Cn1cnc2c(F)c(Nc3ccc(Br)cc3Cl)c(C(=O)NOCCO)cc21 [Selumetinib] (first compound max 10 µM, 7x7, partner max 10 µM)	-0.0473	0.0498	-0.0395	0.0736	-0.016	0.0484	-0.0397	-0.0044	0.0299	-0.0137	0.0429	-0.008	0.831	-0.0473
Cc1c2c(nn1C)CSCc1cc(n(C)n1)CSc1cc(c3ccccc3c1)OCCCc1c(C(=O)O)n(C)c3c-2c(Cl)ccc13 [AZD5991] + CC(=O)O[C@H]1C(=O)[C@@]2(C)[C@H]([C@H](OC(=O)c3ccccc3)[C@]3(O)C[C@H](OC(=O)[C@H](O)[C@@H](NC(=O)c4ccccc4)c4ccccc4)C(C)=C1C3(C)C)[C@]1(OC(C)=O)CO[C@@H]1C[C@@H]2O [Paclitaxel] (first compound max 1 µM, 7x7, partner max 3 µM)	0.0124	0.0065	0.0948	-0.0693	0.0363		0.027	-0.0405	-0.025	-0.0407	0.0376	-0.0402	0.831	0.0289
C=CCn1c(=O)c2cnc(Nc3ccc(N4CCN(C)CC4)cc3)nc2n1-c1cccc(C(C)(C)O)n1 [AZD1775] + Nc1ccn([C@@H]2O[C@H](CO)[C@@H](O)C2(F)F)c(=O)n1 [Gemcitabine] (first compound max 1 µM, partner max 0.3 µM)	-0.0069	0.0821	0.0061	0.0851	0.0717	0.0459	0.0419	-0.0113	-0.0278	-0.005	0.0385	-0.0299	0.73	-0.0627
O=C(c1cc(Cc2n[nH]c(=O)c3ccccc23)ccc1F)N1CCN(C(=O)C2CC2)CC1 [Olaparib] + CN(CC[C@H](CSC1=CC=CC=C1)NC2=C(C=C(C=C2)S(=O)(=O)NC(=O)C3=CC=C(C=C3)N4CCC(CC4)[C@H](C5=CC=CC=C5C6=CC=C(C=C6)Cl)O)S(=O)(=O)C(F)(F)F)CCO [AZD4320] (first compound max 10 µM, 7x7, partner max 1 µM)	-0.0365	0.006	-0.015	0.109	-0.0434	0.002	0.0663	-0.0383	-0.052	0.0454	-0.0566	-0.0439	0.198	0.0097
C[C@@H]1COCCN1c1cc(C2([S@](C)(=N)=O)CC2)nc(-c2ccnc3[nH]ccc23)n1 [AZD6738] + Nc1ccn([C@@H]2O[C@H](CO)[C@@H](O)C2(F)F)c(=O)n1 [Gemcitabine] (first compound max 10 µM, 7x7, partner max 0.3 µM)	-0.0194	0.0536	0.127	0.0607	0.104	0.0999	0.0147	0.07	0.0121	0.0277	0.0493	-0.0417	0.757	0.0086
C[C@@H](Nc1cc(F)cc(F)c1)c1cc(C(=O)N(C)C)cc2c(=O)cc(N3CCOCC3)oc12 [AZD8186] + C1CN(CCC1(C(=O)N[C@@H](CCO)C2=CC=C(C=C2)Cl)N)C3=NC=NC4=C3C=CN4 [AZD5363] (first compound max 10 µM, 7x7, partner max 10 µM)	-0.0011	-0.0508	-0.0075	0.0092	0.0035	0.0056	0.0248	-0.0597	-0.0149	-0.033	0.0092	-0.0661	0.514	-0.0033
C[C@@H]1COCCN1c1cc(C2([S@](C)(=N)=O)CC2)nc(-c2ccnc3[nH]ccc23)n1 [AZD6738] + C1CC(C1)(C(=O)[O-])C(=O)[O-].N.N.[Pt+2] [Carboplatin] (first compound max 10 µM, 7x7, partner max 10 µM)	-0.0453	-0.0479	-0.0328	-0.0261	-0.0386	-0.0272	-0.0502	-0.091	-0.0445	-0.0788	-0.0051	-0.0837	0.246	-0.0462
Cc1c2c(nn1C)CSCc1cc(n(C)n1)CSc1cc(c3ccccc3c1)OCCCc1c(C(=O)O)n(C)c3c-2c(Cl)ccc13 [AZD5991] + Nc1ccn([C@@H]2O[C@H](CO)[C@@H](O)C2(F)F)c(=O)n1 [Gemcitabine] (first compound max 1 µM, 7x7, partner max 0.3 µM)	0.0278	0.0042	0.0744	-0.0188	-0.0267	0.0137	0.0037	-0.0276	-0.0394	0.0014	0.038	-0.0198	0.753	0.0048
